The target of this assay is RAF proto-oncogene serine/threonine-protein kinase (Homo sapiens, UniProt P04049). As to the kind of experiment: Inhibition of Raf1 kinase.
Sequence of RAF proto-oncogene serine/threonine-protein kinase (P04049 whole entry): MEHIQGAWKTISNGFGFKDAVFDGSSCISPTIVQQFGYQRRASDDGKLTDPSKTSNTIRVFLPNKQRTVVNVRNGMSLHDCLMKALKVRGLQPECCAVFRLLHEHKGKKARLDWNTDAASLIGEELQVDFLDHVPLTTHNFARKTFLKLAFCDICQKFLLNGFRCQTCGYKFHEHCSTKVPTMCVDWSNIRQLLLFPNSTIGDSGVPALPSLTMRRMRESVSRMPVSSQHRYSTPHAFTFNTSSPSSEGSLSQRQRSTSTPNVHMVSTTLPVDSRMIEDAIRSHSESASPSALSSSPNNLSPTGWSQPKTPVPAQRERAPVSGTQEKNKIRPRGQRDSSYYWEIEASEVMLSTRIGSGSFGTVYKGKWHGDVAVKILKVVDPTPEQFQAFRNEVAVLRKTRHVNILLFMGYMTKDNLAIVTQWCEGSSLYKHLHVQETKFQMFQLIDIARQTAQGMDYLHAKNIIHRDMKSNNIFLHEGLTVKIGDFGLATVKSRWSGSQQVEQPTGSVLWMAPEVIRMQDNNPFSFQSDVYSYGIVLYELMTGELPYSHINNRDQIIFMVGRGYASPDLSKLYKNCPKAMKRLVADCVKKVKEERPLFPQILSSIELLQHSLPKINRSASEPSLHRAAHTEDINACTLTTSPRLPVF

Compound `CNC(=O)Oc1cc(C)c(/C=C/c2cncc(C(=O)O)c2)c(C)c1` yielded an IC50 of 6 nM.
With `Oc1cc(-c2nc(-c3ccccc3)[nH]c2-c2ccncc2)ccc1Cl` the figure was 1.4 nM; with `Cc1cc(-c2cccnc2)cc(C)c1/C=C/c1cncc(-c2nn[nH]n2)c1`, 630 nM.
As for `Cc1cc(O)cc(C)c1/C=C/c1cncc(C(N)=O)c1` [GW435821X], the figure is 158 nM.
With `CNC(=O)c1cncc(/C=C/c2c(Cl)cccc2Cl)c1` [GW445014X] the figure was 251 nM; with `CNC(=O)Oc1cc(C)c(/C=C/c2cncc(C(N)=O)c2)c(C)c1`, 7 nM.
`CNC(=O)Oc1cc(C)c(/C=C/c2cncc(C#N)c2)c(C)c1`: the IC50 worked out at 40 nM.
As for `Cc1cc(-c2ccccn2)cc(C)c1/C=C/c1cncc(-c2nn[nH]n2)c1`, the figure is 100 nM; as for `CNC(=O)Oc1cc(C)c(/C=C/c2cncc(C(=O)NC)c2)c(C)c1` [GW432441X], 10 nM.
With `CN(c1ccncc1)c1ccc(NC(=O)Nc2cc(C(C)(C)C)on2)cc1` the figure was 3500 nM; with `NC(=O)c1cc(Oc2ccc(NC(=O)Nc3ccc(Cl)c(C(F)(F)F)c3)cc2)ccn1`, 13 nM; with `CC(C)(C)c1nnc(NC(=O)Nc2ccc(Oc3ccncc3)cc2)s1`, 8600 nM.
For the compound `Cc1cccc(C)c1/C=C/c1cncc(C#N)c1`, half-maximal inhibition (IC50) required 1000 nM.
`CC(C)(C)c1nnc(NC(=O)Nc2ccc(Oc3ccncc3)cc2)o1` gave an IC50 of 6300 nM.
With `CC(C)(C)c1cc(NC(=O)Nc2ccc(Oc3ccc(C(=O)O)cc3)cc2)no1` the figure was 6300 nM; with `CNC(=O)c1cncc(/C=C/c2c(C)cccc2C)c1` [GW445012X], 250 nM; with `COC(=O)c1nc(C(C)(C)C)sc1NC(=O)Nc1ccc(C)cc1`, 25000 nM.

One may read the IC50 as the midpoint of a concentration-inhibition curve.

(Values after ChEMBL document CHEMBL1143922, “Pharmacophore identification of Raf-1 kinase inhibitors” (Bioorg Med Chem Lett, 2008).)
